Experimental data from ChEMBL document CHEMBL1125877, “Synthesis of high specific activity (+)- and (-)-6-[18F]fluoronorepinephrine via the nucleophilic aromatic substitution reaction” (1991).

Tests used:
Papio hamadryas [1] = organism: Papio hamadryas; assay: Peak concentration injected dose/cc was observed at 10 min post injection in female baboons; type: functional
Papio hamadryas [2] = organism: Papio hamadryas; assay: Percent radioactivity remained at 120 min post injection was reported in female baboons; type: functional, organism-based; conditions: tested as the 18F-labelled form

| Compound | Peak concentration (Papio hamadryas [1]) [%] | Radioactivity remained (Papio hamadryas [2]) [%] |
| --- | --- | --- |
| NCC(O)c1cc(O)c(O)cc1[18F] (racemic) | 0.042 |  |
| NCC(O)c1cc(O)c(O)cc1F (racemic) |  | 0.032 |
